This is an account of results in US10532066B2, “Surfactant lipids, compositions thereof, and uses thereof” (National Jewish Health, priority 2007, dated 2020).

“Also recorded” adds a separate entry of the source.

The test system of assay [1] is human alveolar macrophages. Kind of assay: LPS-induced TNF-α production by primary human alveolar macrophages. To be noted: LPS 10 ng/ml, phospholipids 20 μg/ml, 6 h. Type of assay: cell-based. On the procedure: FIG. 8. POPG, DMPG and PI antagonize the effects of LPS on primary human alveolar macrophages. Human alveolar macrophages were isolated from healthy volunteer BALF and plated onto a 96-well plate. Two days after plating, 10 ng/ml of LPS and 20 μg/ml of phospholipids were added to monolayer cultures of human alveolar macrophages. 6 h after stimulation, media were collected and TNF-α production was determined by ELISA. LPS stimulation without phospholipid was set at 100%. […] The average TNF-α secretion after LPS stimulation was 30.7±15.1 ng/ml. Significance—**: p<0.01, when compared with LPS stimulation in the absence of POPG.
Human alveolar macrophages were isolated from BALF of healthy volunteers using protocols reviewed and approved by the National Jewish Medical Research Center IRB and the University of Colorado General Clinical Research Center. The lungs were lavaged with pyrogen-free saline, and alveolar macrophages were sedimented by centrifugation at 150×g×5 min. Isolated macrophages were plated at 5×10^4 cells/well in 96-well plates (Falcon) in RPMI 1640 medium containing 10% BGS. The cells were allowed to adhere for 48 h and then used for the experiments after washing with PBS to remove the unattached cells.
U937 cells were induced to differentiate by treatment with 10 nM phorbol myristate acetate (PMA) for 48 h. The cells (1.3×10^5/well) were placed in 96-well plates and further incubated in the absence of PMA for 24 h in RPMI 1640 medium containing 10% BGS. Rat alveolar macrophages (5×10^5/well) were incubated in 24-well plates for 2 h after isolation. The indicated concentration of phospholipids was added to the cultures 30 min before adding LPS. After LPS addition cultures were incubated for 6 h at 37° C. at an atmosphere of 95% air and 5% CO2. At the end of the incubation period the medium was collected and assayed for TNF-α concentrations using an ELISA kit.
Human alveolar macrophages were isolated from healthy volunteer BALF and plated onto a 96-well plate. Two days after plating, 10 ng/ml of LPS and 20 μg/ml of phospholipids (POPG, DMPG and PI) were added to monolayer cultures of human alveolar macrophages. 6 h after stimulation, media were collected and TNF-α production was determined by ELISA. LPS stimulation without phospholipid was set at 100%. […] The average TNF-α secretion after LPS stimulation was 30.7±15.1 ng/ml. Significance—**: p<0.01, when compared with LPS stimulation in the absence of POPG.

In the next assay the target is T1, CD14 binding to LPS (Homo sapiens, UniProt P08571).
T1 construct: purchased Cell Sciences Inc. (Canton, Mass.)
T1 sequence (P08571 20-345): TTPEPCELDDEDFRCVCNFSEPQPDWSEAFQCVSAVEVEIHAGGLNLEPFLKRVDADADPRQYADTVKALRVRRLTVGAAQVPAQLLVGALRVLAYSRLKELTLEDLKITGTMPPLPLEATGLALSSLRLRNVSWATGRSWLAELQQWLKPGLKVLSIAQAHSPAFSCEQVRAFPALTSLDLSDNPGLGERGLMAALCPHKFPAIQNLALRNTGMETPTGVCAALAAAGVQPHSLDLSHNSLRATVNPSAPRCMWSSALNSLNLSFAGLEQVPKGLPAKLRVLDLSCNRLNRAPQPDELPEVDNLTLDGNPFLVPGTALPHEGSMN
Kind of assay: Phospholipid competition for CD14 binding to solid phase LPS. To be noted: CD14 1 μg/ml, liposomes 20 μg/ml. On the procedure:
FIG. 13. PG Inhibits CD14 binding to solid phase LPS. (A) Various types of PG were coated onto microtiter plates, and incubated with CD14 (1 μg/ml) at 37° C. for 1 h. […] Types of PG shown on the graph are: dilauroylphosphatidylglycerol (DLPG), dimyristoyl-phosphatidylglycerol (DMPG), dipalmitoylphosphatidylglycerol (DPPG), and 16:0/18:1; palmitoyl-oleoyl-phosphatidylglycerol (POPG). […] The binding of CD14 to LPS was detected using anti-CD14 monoclonal antibody. The ELISA based absorbance of CD14 bound to LPS was defined as 100%.

A further assay relates to BALB/c mice. Kind of assay: Lung inflammation induced by intratracheally administered LPS. To be noted: LPS 1 μg + phospholipids 30 μg sprayed into trachea, 18 h.

Protocol for BALB/c mice: A mixture of LPS (1 μg) and phospholipids (30 μg) in 20 μl of PBS was sprayed into murine trachea using a MicroSprayer™ aerosolizer. At 18 h after stimulation, lungs were lavaged via the trachea. TNF-α production (A) was determined by ELISA. The number of leukocytes was counted and differential cell counts (B) were determined from at least 300 cells on cytocentrifuged preparations. Mouse KC (C) and MIP-2 (D) secretion were determined using Quantikine kits (R&D System). The data shown are the means±S.E. from six to eight mice.
Human and mouse TNF-α ELISA kits were purchased from BioSource (Camarillo, Calif.). Mouse KC and MIP-2 Quantikine kits were purchased from R&D System. Measurements of these cytokines were according to the manufacturers' protocols.
Female BALB/c mice from 6 to 8 weeks of age were obtained from Jackson Laboratories (Bar Harbor, Me.). Experiments were conducted under a protocol approved by the Institutional Animal Care and Use Committee of the National Jewish Medical and Research Center. Liposomes were formed using a Liposofast™ (Avestin; Ottawa, Canada), which makes unilamellar liposomes of 100 nm of diameter, and then mixed with an aqueous solution containing LPS. The mixture of LPS and phospholipids was sprayed into murine trachea using a MicroSprayer™ aerosolizer (PennCentury, Philadelphia, Pa.) under isoflurene anesthesia. […] After stimulation, lungs were lavaged via the trachea with 1 ml of Hank's balanced salt solution (Invitrogen Corporation, Carlsbad, Calif.). The volume of collected BALF was measured in each sample and the number of leukocytes was counted (Coulter Counter; Coulter Corporation, Hialeah, Fla.). Differential cell counts were determined from at least 300 cells on cytocentrifuged preparations (Cytospin; Shandon Ltd., Runcorn, Cheshire, UK). Slides were stained with modified Wright-Giemsa (Hema; Protocol, Swedesboro, N.J.) and the cell populations differentiated by standard hematologic procedures. Cytokine levels in the BALF or in the supernatants of cultured airway macrophages were measured using ELISA kits.

Consider `CCCCCCCCCCCCCCCC(=O)OCC(COP(=O)(O)OCC(O)CO)OC(=O)CCCCCCCCCCCCCCC` (stereo not drawn) [DPPG, dipalmitoyl-phosphatidylglycerol, reference compound], for which, in assay [1], the “LPS-induced TNF-α production” value was “no significant effect”. For the same compound, the “inhibition of CD14 binding to solid phase LPS” value (“inhibition of CD14 binding” for short) on CD14 binding to LPS is given as “weakly competes”.
As for `CCCCCCCCCCCCCC(=O)OCC(COP(=O)(O)OCC(O)CO)OC(=O)CCCCCCCCCCCCC` (stereo not drawn) [DMPG, dimyristoyl-phosphatidylglycerol], in the assay with BALB/c mice, the “KC secretion in BALF” value was “attenuated”, the LPS-induced neutrophil infiltration result is “modestly attenuated”, the “MIP-2 secretion in BALF” value is on record as “attenuated” and the “TNF-α secretion in the lung (BALF)” value is listed as “significantly attenuated”. Besides, in assay [1], the “LPS-induced TNF-α production” value was “antagonize”. Also, the “LPS-induced TNF-α production” value in assay [1] (listed as dimyristoyl PG) was “markedly attenuate”. Also, the “inhibition of CD14 binding” value at CD14 binding to LPS is on record as “most effective inhibitors”.
`CCCCCCCCCCCCCCCC(=O)OC[C@H](COP(=O)([O-])OCC[N+](C)(C)C)OC(=O)CCCCCCCCCCCCCCC` [DPPC, dipalmitoyl-phosphatidylcholine, reference compound]: in the assay on BALB/c mice, the LPS-induced neutrophil infiltration result was “not” and the “TNF-α secretion in the lung (BALF)” value is listed as “unaffected”. Further, the “LPS-induced TNF-α production” value in assay [1] is given as “no significant effect”.
Take phosphatidylinositol [PI]: in the assay on BALB/c mice, the “KC secretion in BALF” value was “attenuated”, the LPS-induced neutrophil infiltration result is “modestly attenuated”, the “MIP-2 secretion in BALF” value is recorded as “attenuated” and the “TNF-α secretion in the lung (BALF)” value was “significantly attenuated”. In addition, the “LPS-induced TNF-α production” value in assay [1] is given as “markedly attenuate; also recorded: antagonize”. The “inhibition of CD14 binding” value at CD14 binding to LPS is “fails to compete”.
`CCCCCCCC/C=C\CCCCCCCC(=O)O[C@H](COC(=O)CCCCCCCCCCCCCCC)COP(=O)(O)OCC(O)CO` (stereo partly drawn) [POPG, palmitoyl-oleoyl-phosphatidylglycerol]: in the assay with BALB/c mice, the “KC secretion in BALF” value is listed as “especially POPG attenuated”, the LPS-induced neutrophil infiltration result is on record as “modestly attenuated”, the “MIP-2 secretion in BALF” value was “especially POPG attenuated” and the “TNF-α secretion in the lung (BALF)” value was “significantly attenuated”. In addition, the “LPS-induced TNF-α production” value in assay [1] was “markedly attenuate; also recorded: antagonize”. Moreover, on CD14 binding to LPS, the “inhibition of CD14 binding” value is “almost completely inhibits; also recorded: most effective inhibitors”.
